Results as given in patent US20220306695A1, “COMPSTATIN ANALOGUES AND THEIR MEDICAL USES” (priority 2019, published 2022).
Positions of bridges follow the written chain, without caps; N, C: chain ends. Non-standard residues stand in square brackets, D forms with d. Residues, ends and D or L forms follow the SMILES beside them. Trp(1-Me) = Cn1cc(C[C@H](N)C(=O)O)c2ccccc21; 1Nal = N[C@@H](Cc1cccc2ccccc12)C(=O)O; 2Nal = N[C@@H](Cc1ccc2ccccc2c1)C(=O)O

Experiments:
[1] = system: classical complement pathway; assay: In vitro haemolysis assay (inhibition of classical complement pathway); type: cell-based, human; details: Table 3; human serum, sensitized sheep red blood cells; read-out: IC50[nM], in vitro analysis of inhibition of hemolysis
Method in brief: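 Serially diluted compound (9 points) was preincubated 15 min at room temperature with diluted human serum, titrated per batch to give 70-90% maximal haemolysis, in Tris/casein buffer pH 7.4 with Mg2+/Ca2+. Antibody-sensitized sheep erythrocytes were then added for 30 min at 37° C, and the reaction was stopped with EDTA. Haemolysis was read at A405, with IC50 from 4PL fit.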

[2] = Solubility test at 10 mg/mL (visual inspection and light scattering); type: physicochemical; details: for Solubility, Condition 1 Acetate pH 4: 10 mg/mL compound in 100 mM acetate pH 4; for Solubility, Condition 2 Acetate pH 5: 10 mg/mL compound in 100 mM acetate pH 5; for Solubility, Condition 3 Phosphate pH 6: 10 mg/mL compound in 100 mM phosphate pH 6; for Solubility, Condition 4 Phosphate pH 7: 10 mg/mL compound in 100 mM phosphate pH 7; for Solubility, Condition 5 Phosphate pH 7.5: 10 mg/mL compound in 100 mM phosphate pH 7.5

SMILES	IC50 [1] [nM]	Solubility, Condition 1 Acetate pH 4 [2]	Solubility, Condition 2 Acetate pH 5 [2]	Solubility, Condition 3 Phosphate pH 6 [2]	Solubility, Condition 4 Phosphate pH 7 [2]	Solubility, Condition 5 Phosphate pH 7.5 [2]
CC[C@H](C)[C@H](NC(=O)[C@H](C)NC(=O)[C@H](CO)NC(=O)CNC(=O)[C@H](CCC(=O)O)NC(C)=O)C(=O)N[C@H]1CSSC[C@@H](C(=O)N[C@H](C(=O)N[C@@H](CCC(=O)O)C(N)=O)[C@@H](C)O)NC(=O)[C@H](CCCNC(=N)N)NC(=O)[C@H](Cc2c[nH]cn2)NC(=O)[C@H](CCC(=O)O)NC(=O)CNC(=O)[C@H](Cc2c[nH]c3ccccc23)NC(=O)[C@H](CC(=O)O)NC(=O)[C@H](CCC(N)=O)NC(=O)[C@H](Cc2c[nH]c3ccccc23)NC(=O)[C@H]([C@@H](C)CC)NC1=O [Compound 55] (Ac-EGSAICIWQDWGEHRCTE-NH2; disulfide 6-16)	< 250	− (denotes lack of solubility at the given condition, as UV absorbance at 340 nm exceeds 0.1 AU and/or it is visibly turbid or contains particles.)	− (denotes lack of solubility at the given condition, as UV absorbance at 340 nm exceeds 0.1 AU and/or it is visibly turbid or contains particles.)	+ (denotes solubility at the given condition, as determined by UV absorbance being less than 0.1 AU at 340 nm and the sample being clear when manually inspected.)	+ (denotes solubility at the given condition, as determined by UV absorbance being less than 0.1 AU at 340 nm and the sample being clear when manually inspected.)	+ (denotes solubility at the given condition, as determined by UV absorbance being less than 0.1 AU at 340 nm and the sample being clear when manually inspected.)
CC[C@H](C)[C@@H]1NC(=O)[C@@H](NC(=O)[C@H](Cc2ccccc2)NC(=O)[C@H](C)NC(=O)[C@H](CO)NC(=O)CNC(=O)[C@H](CCC(=O)O)NC(C)=O)CSSC[C@@H](C(=O)N[C@H](C(=O)N[C@@H](CCC(=O)O)C(N)=O)[C@@H](C)O)NC(=O)[C@H](CCCNC(=N)N)NC(=O)[C@H](Cc2c[nH]cn2)NC(=O)[C@H](CCC(=O)O)NC(=O)CNC(=O)[C@H](Cc2c[nH]c3ccccc23)NC(=O)[C@H](CC(=O)O)NC(=O)[C@H](CCC(N)=O)NC(=O)[C@H](Cc2cccc3ccccc23)NC1=O [Compound 56] (Ac-EGSAFCI[1Nal]QDWGEHRCTE-NH2; disulfide 6-16)	< 100	− (denotes lack of solubility at the given condition, as UV absorbance at 340 nm exceeds 0.1 AU and/or it is visibly turbid or contains particles.)	− (denotes lack of solubility at the given condition, as UV absorbance at 340 nm exceeds 0.1 AU and/or it is visibly turbid or contains particles.)	+ (denotes solubility at the given condition, as determined by UV absorbance being less than 0.1 AU at 340 nm and the sample being clear when manually inspected.)	+ (denotes solubility at the given condition, as determined by UV absorbance being less than 0.1 AU at 340 nm and the sample being clear when manually inspected.)	+ (denotes solubility at the given condition, as determined by UV absorbance being less than 0.1 AU at 340 nm and the sample being clear when manually inspected.)
CC[C@H](C)[C@@H]1NC(=O)[C@@H](NC(=O)[C@H](Cc2ccccc2)NC(=O)[C@H](C)NC(=O)[C@H](CO)NC(=O)CNC(=O)[C@H](CCC(=O)O)NC(C)=O)CSSC[C@@H](C(=O)N[C@H](C(=O)N[C@@H](CCC(=O)O)C(N)=O)[C@@H](C)O)NC(=O)[C@H](CCCNC(=N)N)NC(=O)[C@H](Cc2c[nH]cn2)NC(=O)[C@H](CCC(=O)O)NC(=O)CNC(=O)[C@H](Cc2c[nH]c3ccccc23)NC(=O)[C@H](CC(=O)O)NC(=O)[C@H](CCC(N)=O)NC(=O)[C@H](Cc2cn(C)c3ccccc23)NC1=O [Compound 57] (Ac-EGSAFCI[Trp(1-Me)]QDWGEHRCTE-NH2; disulfide 6-16)	< 100	− (denotes lack of solubility at the given condition, as UV absorbance at 340 nm exceeds 0.1 AU and/or it is visibly turbid or contains particles.)	− (denotes lack of solubility at the given condition, as UV absorbance at 340 nm exceeds 0.1 AU and/or it is visibly turbid or contains particles.)	+ (denotes solubility at the given condition, as determined by UV absorbance being less than 0.1 AU at 340 nm and the sample being clear when manually inspected.)	+ (denotes solubility at the given condition, as determined by UV absorbance being less than 0.1 AU at 340 nm and the sample being clear when manually inspected.)	+ (denotes solubility at the given condition, as determined by UV absorbance being less than 0.1 AU at 340 nm and the sample being clear when manually inspected.)
CC[C@H](C)[C@@H]1NC(=O)[C@@H](NC(=O)[C@H](Cc2ccccc2)NC(=O)[C@H](C)NC(=O)[C@H](CO)NC(=O)CNC(=O)[C@H](CCC(=O)O)NC(C)=O)CSSC[C@@H](C(=O)N[C@H](C(=O)N[C@@H](CCC(=O)O)C(N)=O)[C@@H](C)O)NC(=O)[C@H](CCCNC(=N)N)NC(=O)[C@H](Cc2c[nH]cn2)NC(=O)[C@H](CCC(=O)O)NC(=O)CNC(=O)[C@H](Cc2c[nH]c3ccccc23)NC(=O)[C@H](CC(=O)O)NC(=O)[C@H](CCC(N)=O)NC(=O)[C@H](Cc2ccc3ccccc3c2)NC1=O [Compound 60] (Ac-EGSAFCI[2Nal]QDWGEHRCTE-NH2; disulfide 6-16)	< 100	− (denotes lack of solubility at the given condition, as UV absorbance at 340 nm exceeds 0.1 AU and/or it is visibly turbid or contains particles.)	− (denotes lack of solubility at the given condition, as UV absorbance at 340 nm exceeds 0.1 AU and/or it is visibly turbid or contains particles.)	+ (denotes solubility at the given condition, as determined by UV absorbance being less than 0.1 AU at 340 nm and the sample being clear when manually inspected.)	+ (denotes solubility at the given condition, as determined by UV absorbance being less than 0.1 AU at 340 nm and the sample being clear when manually inspected.)	+ (denotes solubility at the given condition, as determined by UV absorbance being less than 0.1 AU at 340 nm and the sample being clear when manually inspected.)
CC[C@H](C)[C@@H]1NC(=O)[C@@H](NC(=O)[C@H](Cc2ccc(O)cc2)NC(C)=O)CSSC[C@@H](C(=O)N[C@H](C(=O)NCC(=O)N[C@@H](C)C(=O)N[C@@H](CCC(=O)O)C(=O)N[C@@H](CO)C(N)=O)[C@@H](C)O)NC(=O)[C@H](CCCNC(=N)N)NC(=O)[C@H](Cc2c[nH]cn2)NC(=O)[C@H](CCC(=O)O)NC(=O)CNC(=O)[C@H](Cc2c[nH]c3ccccc23)NC(=O)[C@H](CC(=O)O)NC(=O)[C@H](CCC(N)=O)NC(=O)[C@H](Cc2cn(C)c3ccccc23)NC1=O [Compound 62] (Ac-YCI[Trp(1-Me)]QDWGEHRCTGAES-NH2; disulfide 2-12)	< 100	− (denotes lack of solubility at the given condition, as UV absorbance at 340 nm exceeds 0.1 AU and/or it is visibly turbid or contains particles.)	− (denotes lack of solubility at the given condition, as UV absorbance at 340 nm exceeds 0.1 AU and/or it is visibly turbid or contains particles.)	+ (denotes solubility at the given condition, as determined by UV absorbance being less than 0.1 AU at 340 nm and the sample being clear when manually inspected.)	+ (denotes solubility at the given condition, as determined by UV absorbance being less than 0.1 AU at 340 nm and the sample being clear when manually inspected.)	+ (denotes solubility at the given condition, as determined by UV absorbance being less than 0.1 AU at 340 nm and the sample being clear when manually inspected.)
CC[C@H](C)[C@@H]1NC(=O)[C@@H](NC(=O)[C@H](Cc2ccccc2)NC(C)=O)CSSC[C@@H](C(=O)N[C@H](C(=O)NCC(=O)N[C@@H](C)C(=O)N[C@@H](CCC(=O)O)C(=O)N[C@@H](CO)C(N)=O)[C@@H](C)O)NC(=O)[C@H](CCCNC(=N)N)NC(=O)[C@H](Cc2c[nH]cn2)NC(=O)[C@H](CCC(=O)O)NC(=O)CNC(=O)[C@H](Cc2c[nH]c3ccccc23)NC(=O)[C@H](CC(=O)O)NC(=O)[C@H](CCC(N)=O)NC(=O)[C@H](Cc2cccc3ccccc23)NC1=O [Compound 63] (Ac-FCI[1Nal]QDWGEHRCTGAES-NH2; disulfide 2-12)	< 100	− (denotes lack of solubility at the given condition, as UV absorbance at 340 nm exceeds 0.1 AU and/or it is visibly turbid or contains particles.)	− (denotes lack of solubility at the given condition, as UV absorbance at 340 nm exceeds 0.1 AU and/or it is visibly turbid or contains particles.)	+ (denotes solubility at the given condition, as determined by UV absorbance being less than 0.1 AU at 340 nm and the sample being clear when manually inspected.)	+ (denotes solubility at the given condition, as determined by UV absorbance being less than 0.1 AU at 340 nm and the sample being clear when manually inspected.)	+ (denotes solubility at the given condition, as determined by UV absorbance being less than 0.1 AU at 340 nm and the sample being clear when manually inspected.)
